# Tests used:
# LDL receptor = LDL receptor (Homo sapiens, UniProt P01130); conditions: lipid-free peptide; cited from earlier work
# [1] = system: primary rat neuronal/glial cultures exposed to NMDA; assay: NMDA-induced 45Ca uptake by primary neuronal-glial cultures; type: cell-based; conditions: 10 μM MK-801 pretreatment, 100 μM NMDA
# Protocol: (§1) Primary neuronal-glial cultures were prepared from fetal Sprague-Dawley rat brains at 18 days of gestation as previously described (Pearlstein et al., 1998). Brains were harvested from 10-15 pups and dissected to separate cortex from meninges and subcortical structures using anatomical landmarks. Cortices were pooled and minced into 2 mm^3 pieces in a buffered salt solution supplemented with 20 mM HEPES buffer, pH 7.4, containing 0.25% trypsin. The tissue was incubated for 20 minutes at 37° C. in a 5% CO2/95% room air atmosphere, and washed twice with ice-cold, glutamine-free minimum essential medium (MEM; Life Technologies) containing 15 mM glucose, 5% fetal bovine serum (GIBCO), 5% horse serum (GIBCO), and 1% DNase-I (Sigma Chemical Co., St. Louis, Mo., USA). Tissue pieces were dissociated by trituration through a fire-polished 9-inch Pasteur pipette (I.D.=0.7 mm). The resultant suspension was centrifuged at 50×g for 10 min, the supernatant discarded, and the pellet resuspended in growth medium (MEM supplemented with 15 mM glucose, 5% fetal bovine serum, and 5% horse serum). The dissociated cells were plated to achieve a confluent monolayer using 4×10^5 cells per well in poly-D-lysine coated, 24-well culture plates (Falcon 3047; Becton Dickinson Co., Lincoln Park, N.J., USA). Cultures were maintained undisturbed at 37° C. in a humidified 5% CO2/95% room air atmosphere for 13-16 days prior to use.
# Cellular calcium uptake from the extracellular space was assessed using ^45CaCl2 (American Radiolabeled Chemicals, St. Louis, Mo.). After washing the cultures with Mg^2+-free BSS containing 20 mM HEPES buffer, 6 μM peptide or 10 μM MK-801 was added to each well prior to and removed at the end of 100 μM NMDA exposure. ^45Ca (0.28 μCi/ml, 0.9 μCi/well) was added to each well immediately prior to NMDA exposure. The cultures were returned to the incubator and maintained at 37° C. Twenty minutes later, the exposure medium was removed and each well was washed 3 times with ice-cold Mg^2+-free BSS containing 20 mM HEPES buffer. The cells were subsequently lysed by addition of 0.2% sodium dodecyl sulfate (SDS). An aliquot from each well was added to a liquid scintillation vial containing 10 ml Cytoscint™ (ICN, Biochemical Research Product, CA) and radioactivity was determined by scintillation counting and normalized to cell count.
# [2] = system: thioglycollate-elicited peritoneal macrophages; assay: [Ca2+]i in Fura-2/AM treated single macrophages, digital imaging microscopy (Example 10); type: cell-based, mouse; conditions: 1000-fold molar excess RAP, 10 mM NiCl2, or 1 μg/ml pertussis toxin 12 h
# Protocol: (§2) Macrophage Harvesting. All experiments involving animals were first approved by the Duke Institutional Animal Care and Use Committee. Pathogen-free female C57BL/6 mice and ApoE deficient mice previously backcrossed 10 times to the C57BL/6 strain were obtained from the Jackson Laboratory (Bar Harbor, Me.). Thioglycollate-elicited peritoneal macrophages were harvested by peritoneal lavage using 10 ml of ice-cold Hanks' balanced salt solution containing 10 mM HEPES and 3.5 mM NaHCO3 (HHBSS), pH 7.4. The macrophages were pelleted by centrifugation at 4° C. at ˜800×g for 10 min and resuspended in RPMI 1640 media supplemented with 25 mM HEPES, 12.5 U/ml penicillin, 6.5 mg/ml streptomycin, and 5% fetal bovine serum.
# Measurement of [Ca^2+]i in apoE and peptide treated macrophage. Changes in [Ca^2+]i levels in Fura-2/AM treated single cells were quantified using digital imaging microscopy in accordance with known techniques. Macrophages were plated on glass coverslips sitting in 35 mm Petri dishes at a density of 1.5×10^5 cells/cm^2, and allowed to adhere for 2 h in a humidified 5% CO2 incubator at 37° C. The non-adherent cells were aspirated and the monolayers were washed twice with HHBSS. 4 μM Fura-2/AM was incubated with the cells for thirty min in the dark at room temperature and [Ca^2+]i was subsequently measured using a digital imaging microscope in accordance with known techniques. […] To determine if signaling resulted from ligation of the ligand to LRP, cells were preincubated with a 1000-fold molar excess of RAP or 10 mM NiCl2, both of which inhibit ligand binding to LRP, for 5 min prior to stimulation with apoE or peptide. In experiments in which the involvement of a G protein was assessed, monolayers were incubated with 1 μg/ml pertussis toxin for 12 h at 37° C. and Ca^2+ measurements were made as stated above.
# [3] = system: primary rat neuronal/glial cultures exposed to NMDA; assay: NMDA-induced LDH release in primary neuronal-glial cultures; type: cell-based; conditions: 6 μM peptide, 100 μM NMDA
# Protocol: as §1
# Mature cultures (13-16 days in vitro) were washed with Mg^2+-free buffered salt solution (BSS) containing 20 mM HEPES buffer (pH7.4) and 1.8 mM CaCl2, prior to the addition of NMDA. Following NMDA exposure, cultures were maintained for 30 minutes at 37° C. in a 5% CO2/95% air atmosphere. The medium containing NMDA was then removed and replaced with MEM supplemented with 20 mM glucose. The cultures were returned to the incubator for 24 h. In all experiments, cellular damage was assessed at 24 h after exposure to NMDA by measurement of the activity of lactate dehydrogenase (LDH) released into the medium as described below. The non-competitive NMDA receptor antagonist, MK-801 (Tocris Cookson Ins., St. Louis, Mo.) at a concentration of 10 μM was used as a positive control. Preliminary dose-response studies were performed to determine the concentration of NMDA (100 μM) required to effect a near-maximal LDH release (ED90) as used in the present study.
# The effect of human recombinant apoE (Panverra, Madison, Wis.) on 100 μM NMDA-induced LDH release was assessed and the dose-response curve was obtained (apoE: 0.1-10 μM final concentration). ApoE3, the most common human isoform, was added to the cultures 30 minutes prior to and removed following NMDA exposure. The effect of apoE peptide (133-149) on NMDA (100 μM or 300 μM)-induced LDH release was next assessed and the dose-response curve was obtained in a separate set of sister cultures that were simultaneously treated under one of the following conditions: (1) various doses of peptide (0.3 μM, 1 μM, 3 μM, 6 μM, 10 μM final concentration) were added to the culture immediately prior to and removed at the end of NMDA exposure; (2) no peptide, NMDA exposure; (3) no peptide, no NMDA exposure; (4) no peptide, NMDA exposure with 10 μM MK-801 for 30 minutes. The effect of a scrambled control peptide on NMDA-induced LDH release was similarly assessed.
# The effect of time of administration of apoE peptide (133-149) on NMDA-induced LDH release was assessed in a separate set of sister cultures that were simultaneously treated under one of following conditions: (1) peptide was added to the culture medium 24 h prior to and removed immediately before exposure to NMDA; (2) peptide was added immediately prior to and removed at the end of the NMDA exposure; (3) peptide was added immediately following the 30 minutes NMDA exposure; (4) no peptide, NMDA exposure; (5) no peptide, no NMDA exposure. […]
# [4] = system: enriched microglia primary cultures from apoE deficient mouse pups; assay: LPS-stimulated nitric oxide (nitrite) secretion by enriched microglia primary cultures; type: cell-based; conditions: peptide dose of 2 mM, LPS 100 ng/ml
# Protocol: Culture preparation and characterization: Mixed glial cell cultures were prepared from: (a) wildtype (C57B16; Jackson Laboratories) mouse pups; (b) ApoE deficient mutant mouse pups (ApoE-deficient mice), and (c) transgenic mouse pups expressing human ApoE3 but not murine ApoE (ApoE3 mice). See Xu et al., Neurobiol. Dis. 3:229 (1996) regarding the creation and characterization of the transgenic mice. Mixed glial cell cultures were prepared as has been described. See McMillian et al., Neurochem. 58:1308 (1992); Laskowitz et al., J. Neuroimmunol. 76:70 (1997). Briefly, brains were removed from 2-4 day old pups, cleaned of membranes and blood vessels, mechanically dispersed in Ca^+2-free media, and collected by centrifugation. Cells were then plated in DMEM/F12 (containing 10% fetal calf serum, 1% penicillin/streptomycin, Gibco #15070), one brain per 25 cm flask. […]
# Nitrite Quantification The production of NO was assessed by measuring the accumulation of nitrite, which was quantified using a calorimetric reaction with Griess reagent (0.1% N-1-naphthylethylenediamine dihydrochloride, 1% sulfanilamide, and 2.5% H3PO4). Absorbance was measured at 570 nm by spectrophotometry. […]
# Enriched microglia primary cultures were prepared from the brains of apoE deficient mouse pups as described in Example 1, above. […] Nitric oxide production was assessed as described in Example 1. […]
# [5] = system: thioglycollate-elicited peritoneal macrophages; assay: IP3 formation in myo-[2-3H]inositol-labeled macrophages (Example 10); type: cell-based, mouse; conditions: pertussis toxin pretreatment
# Protocol: as §2, with “serum. Cell viability was determined by the trypan blue exclusion method and was consistently greater then 95%.” for “serum.”
# Measurement of IP3 in apoE treated macrophage and effect of pertussis toxin. The formation of IP3 in myo-[2-^3H]inositol-labeled macrophages under various experimental conditions was quantified in accordance with known techniques. Macrophage were plated in 6 well plates (4×10^6 cells/well) and allowed to adhere at 37° C. for 2 h in a humidified 5% CO2 incubator. Medium was aspirated from the monolayers and RPMI 1640 medium containing 0.25% BSA and myo-[2-^3H]inositol (specific activity 10-20 Ci/mmol) was added to each well. […] Radioactivity was determined by placing aliquots in a liquid scintillation counter to determine radioactivity. […] The effect on IP3 formation was measured as described above.
# Chain of LDL receptor (P01130 22-860, species assumed): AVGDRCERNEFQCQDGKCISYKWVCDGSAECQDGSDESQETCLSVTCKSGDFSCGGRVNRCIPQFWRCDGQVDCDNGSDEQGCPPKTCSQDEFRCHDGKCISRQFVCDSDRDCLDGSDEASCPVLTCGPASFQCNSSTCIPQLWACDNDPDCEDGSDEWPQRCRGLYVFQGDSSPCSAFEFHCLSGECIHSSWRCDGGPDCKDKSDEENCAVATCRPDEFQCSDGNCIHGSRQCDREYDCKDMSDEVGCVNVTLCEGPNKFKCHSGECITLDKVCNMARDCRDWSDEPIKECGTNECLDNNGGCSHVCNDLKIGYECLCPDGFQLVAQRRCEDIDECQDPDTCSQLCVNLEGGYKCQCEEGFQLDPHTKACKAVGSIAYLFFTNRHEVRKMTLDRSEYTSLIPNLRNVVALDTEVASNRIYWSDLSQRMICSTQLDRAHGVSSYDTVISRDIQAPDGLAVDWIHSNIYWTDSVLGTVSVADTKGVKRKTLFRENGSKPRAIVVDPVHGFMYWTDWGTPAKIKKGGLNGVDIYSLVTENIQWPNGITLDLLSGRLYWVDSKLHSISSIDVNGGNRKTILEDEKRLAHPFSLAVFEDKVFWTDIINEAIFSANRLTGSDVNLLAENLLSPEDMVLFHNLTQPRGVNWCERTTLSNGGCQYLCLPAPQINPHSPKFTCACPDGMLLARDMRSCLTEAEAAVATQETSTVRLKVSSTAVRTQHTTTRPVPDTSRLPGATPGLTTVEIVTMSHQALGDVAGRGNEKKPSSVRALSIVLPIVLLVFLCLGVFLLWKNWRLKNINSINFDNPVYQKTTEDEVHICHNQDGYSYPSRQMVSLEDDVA
molecule,measurement,setting,value
141-155 dimer: dimeric peptide of ApoE residues 141-155 (Dyer et al.),LDL receptor binding,LDL receptor,~1 % of LDL activity
"141-155 monomer: lipid-free synthetic peptide comprising residues 141-155 of ApoE (Dyer et al.) (LRKLRKRLLRDADDL; UniProt P02649 159-173, looked up, fragment)",LDL receptor binding activity,LDL receptor,No binding activity was observed
"C[C@]12N[C@H](Cc3ccccc31)c1ccccc12 [MK-801, reference compound]",NMDA-induced calcium influx,[1],completely reversed
"[Cl][Ni][Cl] [Ni^+2, NiCl2, reference compound]",effect of preincubation on apoE-induced [Ca2+]i increase,[2],markedly attenuated the [Ca^2+]i increases
"ApoE (136-149): 14 amino acid peptide, three amino-terminal residues removed from ApoE (133-149) (Ac-RLASHLRKLRKRLL-NH2; listed as Homo sapiens)","protection against NMDA-induced cell damage, truncated peptides",[3],modest protection against NMDA toxicity
"ApoE (139-149): 11-residue peptide, six amino-terminal residues removed from ApoE (133-149) (Ac-SHLRKLRKRLL-NH2; listed as Homo sapiens)","protection against NMDA-induced cell damage, truncated peptides",[3],no detectable bioactivity
"LRKLRKRLL (fragment of ApoE containing LDL receptor binding site) [SEQ ID NO:2, 9-mer monomer, ApoE positions 141-149, used as control]",nitric oxide secretion by activated microglia,[4],did not result in any apparent decrease in nitric oxide secretion
pertussis toxin [reference compound],effect of preincubation on apoE-induced [Ca2+]i increase,[2],markedly attenuated the ApoE-dependent Ca^2+ response
same,effect of pretreatment on apoE-induced IP3 increase,[5],completely abolished this increase in IP3
